Experimental data: ChEMBL document CHEMBL3792292, “Development of a potent and selective FLT3 kinase inhibitor by systematic expansion of a non-selective fragment-screening hit” (Bioorg Med Chem Lett, 2016)

What was measured:
[1] = molecular target: T1, Receptor-type tyrosine-protein kinase FLT3 (Homo sapiens, UniProt P36888); test: Inhibition of human N-terminal GST-tagged FLT3 cytoplasmic domain (564 to 993 residues) expressed in baculovirus expression system using fluorescence labelled srctide as substrate by mobility shift assay in presence of ATP
T1 sequence (P36888 whole entry): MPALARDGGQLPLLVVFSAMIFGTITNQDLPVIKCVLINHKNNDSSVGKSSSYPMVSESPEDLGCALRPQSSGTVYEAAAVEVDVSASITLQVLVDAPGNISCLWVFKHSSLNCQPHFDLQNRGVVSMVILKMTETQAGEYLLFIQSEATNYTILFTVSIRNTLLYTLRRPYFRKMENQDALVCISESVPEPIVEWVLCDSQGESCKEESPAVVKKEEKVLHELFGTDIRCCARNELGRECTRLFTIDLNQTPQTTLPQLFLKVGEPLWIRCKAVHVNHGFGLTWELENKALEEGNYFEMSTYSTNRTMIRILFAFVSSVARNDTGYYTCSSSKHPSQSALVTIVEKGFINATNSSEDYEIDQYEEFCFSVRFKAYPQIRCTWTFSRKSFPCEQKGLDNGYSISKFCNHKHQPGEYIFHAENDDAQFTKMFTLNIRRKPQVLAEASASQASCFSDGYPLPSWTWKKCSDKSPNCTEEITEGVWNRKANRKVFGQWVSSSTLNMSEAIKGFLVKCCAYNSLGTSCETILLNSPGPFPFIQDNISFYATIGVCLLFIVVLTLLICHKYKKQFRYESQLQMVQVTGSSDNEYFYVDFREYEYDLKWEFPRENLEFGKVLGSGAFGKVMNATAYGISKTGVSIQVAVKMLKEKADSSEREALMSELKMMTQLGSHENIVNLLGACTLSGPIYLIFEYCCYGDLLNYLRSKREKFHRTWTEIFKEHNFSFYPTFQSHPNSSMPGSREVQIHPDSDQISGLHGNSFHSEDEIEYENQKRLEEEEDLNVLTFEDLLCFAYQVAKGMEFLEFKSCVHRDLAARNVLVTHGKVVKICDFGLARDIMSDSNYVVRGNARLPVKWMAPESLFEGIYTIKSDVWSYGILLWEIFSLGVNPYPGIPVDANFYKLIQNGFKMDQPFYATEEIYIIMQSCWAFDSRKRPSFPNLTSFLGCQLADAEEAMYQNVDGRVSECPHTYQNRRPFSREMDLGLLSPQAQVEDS

[2] = molecular target: Tyrosine-protein kinase CSK (Homo sapiens) (UniProt P41240); test: Inhibition of full length human N-terminal GST-tagged CSK (1 to 450 residues) expressed in baculovirus expression system using fluorescence labelled srctide as substrate at 50 times IC50 by electrophoretic mobility shift assay relative to control
[3] = molecular target: T2, Tyrosine-protein kinase JAK3 (Homo sapiens) (UniProt P52333); test: Inhibition of human N-terminal His-tagged JAK3 catalytic domain (795 to 1124 residues) expressed in baculovirus expression system using fluorescence labelled srctide as substrate at 50 times IC50 by electrophoretic mobility shift assay relative to control
T2 sequence (whole entry): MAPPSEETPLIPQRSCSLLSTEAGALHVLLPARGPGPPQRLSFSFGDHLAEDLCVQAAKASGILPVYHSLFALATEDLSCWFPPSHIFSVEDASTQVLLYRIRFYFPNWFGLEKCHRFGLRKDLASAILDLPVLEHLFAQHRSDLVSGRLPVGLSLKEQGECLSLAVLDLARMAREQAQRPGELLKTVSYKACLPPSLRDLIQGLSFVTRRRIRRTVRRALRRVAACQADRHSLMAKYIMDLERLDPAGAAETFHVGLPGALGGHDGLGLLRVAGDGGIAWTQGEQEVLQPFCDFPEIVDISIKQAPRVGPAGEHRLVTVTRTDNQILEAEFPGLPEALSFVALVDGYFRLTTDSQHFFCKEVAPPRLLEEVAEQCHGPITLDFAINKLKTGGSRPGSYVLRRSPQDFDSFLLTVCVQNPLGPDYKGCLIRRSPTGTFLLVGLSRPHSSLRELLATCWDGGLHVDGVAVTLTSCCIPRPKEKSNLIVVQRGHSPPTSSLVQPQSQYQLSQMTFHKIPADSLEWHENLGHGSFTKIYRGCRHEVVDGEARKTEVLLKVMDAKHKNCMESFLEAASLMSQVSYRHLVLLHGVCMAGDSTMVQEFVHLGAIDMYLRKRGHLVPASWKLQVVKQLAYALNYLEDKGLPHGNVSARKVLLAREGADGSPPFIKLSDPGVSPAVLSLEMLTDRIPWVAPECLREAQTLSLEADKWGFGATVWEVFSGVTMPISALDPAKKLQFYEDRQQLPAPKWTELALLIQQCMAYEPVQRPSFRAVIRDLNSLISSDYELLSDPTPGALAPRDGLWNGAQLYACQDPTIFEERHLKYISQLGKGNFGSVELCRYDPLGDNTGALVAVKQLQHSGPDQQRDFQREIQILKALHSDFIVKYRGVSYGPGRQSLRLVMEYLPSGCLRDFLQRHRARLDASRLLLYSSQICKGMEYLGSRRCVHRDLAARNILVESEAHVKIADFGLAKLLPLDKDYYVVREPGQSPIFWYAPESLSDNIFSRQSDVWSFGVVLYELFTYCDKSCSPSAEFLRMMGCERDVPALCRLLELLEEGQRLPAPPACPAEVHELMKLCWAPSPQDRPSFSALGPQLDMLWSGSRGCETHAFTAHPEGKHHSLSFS

[4] = molecular target: Protein-tyrosine kinase 2-beta (Homo sapiens) (UniProt Q14289); test: Inhibition of full length human N-terminal GST-tagged PYK2 (1 to 967 residues) expressed in baculovirus expression system using fluorescence labelled Blk/Lyntide as substrate at 50 times IC50 by electrophoretic mobility shift assay relative to control
[5] = molecular target: Angiopoietin-1 receptor (Homo sapiens) (UniProt Q02763); test: Inhibition of human N-terminal GST-tagged TIE2 receptor cytoplasmic domain (771 to 1124 residues) expressed in baculovirus expression system using fluorescence labelled Blk/Lyntide as substrate at 50 times IC50 by electrophoretic mobility shift assay relative to control
[6] = molecular target: Glycogen synthase kinase-3 beta (Homo sapiens) (UniProt P49841); test: Inhibition of full length human N-terminal GST-tagged GSK3beta (1 to 420 residues) expressed in baculovirus expression system using fluorescence labelled CREBtide-p as substrate at 50 times IC50 by electrophoretic mobility shift assay relative to control
Sequence of Glycogen synthase kinase-3 beta (Homo sapiens) (P49841 whole entry, looked up, the tested form may be a part): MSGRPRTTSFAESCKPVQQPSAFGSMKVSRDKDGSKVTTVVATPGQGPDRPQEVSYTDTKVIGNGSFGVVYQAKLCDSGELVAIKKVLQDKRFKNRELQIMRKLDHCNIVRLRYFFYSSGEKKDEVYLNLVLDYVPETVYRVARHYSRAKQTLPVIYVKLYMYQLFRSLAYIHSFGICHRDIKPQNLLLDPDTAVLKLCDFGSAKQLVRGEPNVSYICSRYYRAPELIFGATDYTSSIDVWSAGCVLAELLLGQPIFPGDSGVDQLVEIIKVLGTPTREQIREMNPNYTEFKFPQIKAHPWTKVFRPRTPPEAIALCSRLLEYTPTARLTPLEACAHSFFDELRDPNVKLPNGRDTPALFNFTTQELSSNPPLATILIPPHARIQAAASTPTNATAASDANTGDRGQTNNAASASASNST

Sequence of Tyrosine-protein kinase CSK (Homo sapiens) (P41240 2-450 limits assumed): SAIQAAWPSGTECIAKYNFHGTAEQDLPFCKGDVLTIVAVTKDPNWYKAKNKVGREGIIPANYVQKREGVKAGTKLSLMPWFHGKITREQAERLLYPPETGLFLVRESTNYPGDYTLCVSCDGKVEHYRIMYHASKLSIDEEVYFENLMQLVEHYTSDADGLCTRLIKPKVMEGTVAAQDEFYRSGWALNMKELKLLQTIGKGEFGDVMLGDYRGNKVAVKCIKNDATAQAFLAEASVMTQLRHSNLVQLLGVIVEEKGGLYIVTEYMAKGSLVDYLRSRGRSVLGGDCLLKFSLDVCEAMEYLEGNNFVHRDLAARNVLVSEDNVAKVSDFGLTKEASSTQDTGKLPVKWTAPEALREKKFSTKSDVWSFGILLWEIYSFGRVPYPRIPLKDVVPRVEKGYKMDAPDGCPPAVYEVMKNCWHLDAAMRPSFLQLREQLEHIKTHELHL
Sequence of Protein-tyrosine kinase 2-beta (Homo sapiens) (Q14289 whole entry, looked up, the tested form may be a part): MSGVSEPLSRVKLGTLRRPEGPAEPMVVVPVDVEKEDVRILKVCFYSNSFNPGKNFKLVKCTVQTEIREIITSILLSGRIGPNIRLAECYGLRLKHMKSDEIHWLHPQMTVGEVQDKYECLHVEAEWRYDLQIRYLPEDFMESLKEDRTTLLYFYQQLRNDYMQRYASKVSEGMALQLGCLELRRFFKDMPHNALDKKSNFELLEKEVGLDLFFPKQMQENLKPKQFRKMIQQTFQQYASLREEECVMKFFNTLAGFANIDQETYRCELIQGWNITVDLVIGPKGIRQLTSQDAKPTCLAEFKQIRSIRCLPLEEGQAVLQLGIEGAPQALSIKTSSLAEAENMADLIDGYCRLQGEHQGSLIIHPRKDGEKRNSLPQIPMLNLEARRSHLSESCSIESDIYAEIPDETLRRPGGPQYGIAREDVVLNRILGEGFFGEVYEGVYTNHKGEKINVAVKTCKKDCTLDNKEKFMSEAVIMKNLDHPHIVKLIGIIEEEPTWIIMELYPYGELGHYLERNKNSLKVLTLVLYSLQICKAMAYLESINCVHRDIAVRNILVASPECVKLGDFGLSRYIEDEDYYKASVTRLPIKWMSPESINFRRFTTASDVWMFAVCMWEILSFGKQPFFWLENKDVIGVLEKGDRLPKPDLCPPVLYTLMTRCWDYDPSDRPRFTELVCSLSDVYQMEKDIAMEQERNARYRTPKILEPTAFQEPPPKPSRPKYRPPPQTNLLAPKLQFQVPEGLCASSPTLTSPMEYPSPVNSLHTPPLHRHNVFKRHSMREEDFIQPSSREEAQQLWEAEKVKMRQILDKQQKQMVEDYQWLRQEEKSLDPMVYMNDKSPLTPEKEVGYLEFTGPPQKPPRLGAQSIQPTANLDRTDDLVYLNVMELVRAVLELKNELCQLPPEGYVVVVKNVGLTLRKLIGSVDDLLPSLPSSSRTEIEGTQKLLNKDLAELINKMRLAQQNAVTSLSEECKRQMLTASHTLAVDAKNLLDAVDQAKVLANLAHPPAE
Sequence of Angiopoietin-1 receptor (Homo sapiens) (Q02763 whole entry, the tested form may be a part): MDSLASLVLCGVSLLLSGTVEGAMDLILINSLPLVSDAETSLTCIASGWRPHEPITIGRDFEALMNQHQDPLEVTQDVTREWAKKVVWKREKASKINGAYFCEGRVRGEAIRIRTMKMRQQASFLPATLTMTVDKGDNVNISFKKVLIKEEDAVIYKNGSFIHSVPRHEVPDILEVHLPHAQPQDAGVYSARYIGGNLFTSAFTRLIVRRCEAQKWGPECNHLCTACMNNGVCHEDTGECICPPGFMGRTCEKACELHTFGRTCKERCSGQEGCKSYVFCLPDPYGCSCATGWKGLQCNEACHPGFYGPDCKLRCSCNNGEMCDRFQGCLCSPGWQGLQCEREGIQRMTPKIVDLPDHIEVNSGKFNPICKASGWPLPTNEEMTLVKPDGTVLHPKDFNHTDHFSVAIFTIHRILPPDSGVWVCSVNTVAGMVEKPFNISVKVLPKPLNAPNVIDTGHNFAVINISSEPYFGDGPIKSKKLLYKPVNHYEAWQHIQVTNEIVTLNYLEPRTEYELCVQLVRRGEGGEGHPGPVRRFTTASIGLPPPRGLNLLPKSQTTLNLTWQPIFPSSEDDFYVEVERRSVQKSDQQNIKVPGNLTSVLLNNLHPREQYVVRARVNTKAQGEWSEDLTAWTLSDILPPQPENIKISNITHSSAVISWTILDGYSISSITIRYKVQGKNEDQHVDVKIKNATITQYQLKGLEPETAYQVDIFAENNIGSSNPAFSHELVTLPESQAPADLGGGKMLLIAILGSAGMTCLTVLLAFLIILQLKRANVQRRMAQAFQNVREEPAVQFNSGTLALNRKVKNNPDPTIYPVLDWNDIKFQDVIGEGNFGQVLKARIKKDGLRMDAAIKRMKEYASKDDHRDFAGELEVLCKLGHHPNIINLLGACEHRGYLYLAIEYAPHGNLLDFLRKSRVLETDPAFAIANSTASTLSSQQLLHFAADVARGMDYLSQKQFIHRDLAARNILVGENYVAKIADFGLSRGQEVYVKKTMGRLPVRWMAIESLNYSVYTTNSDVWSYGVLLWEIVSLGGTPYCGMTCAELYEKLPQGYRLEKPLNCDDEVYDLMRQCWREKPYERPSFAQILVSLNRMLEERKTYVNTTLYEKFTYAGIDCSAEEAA

Structure (SMILES) | IC50 [1] [µM] | inhibition [2] [%] | inhibition [3] [%] | inhibition [4] [%] | inhibition [5] [%] | inhibition [6] [%]
O=C(Nc1ccccc1)c1n[nH]c2ccccc12 | 0.35 | -0.5 | 51.9 | 49.5 | 3 | 51
O=C(Nc1ccc(CN2CCN(c3ccccc3)CC2)cc1)c1n[nH]c2ccccc12 | 0.009 | -4.3 | 9 | 14.2 | -2.5 | -3.7
O=C(Nc1ccc(C(=O)N2CCN(c3ccccc3)CC2)cc1)c1n[nH]c2ccccc12 | 0.023 | -5 | 26.4 | 34.9 | -2 | 4.9
